For data set [1], the system named is HepG2 cells. Briefly: MTT cytotoxicity assay, HepG2. The following applies: for surviving cells: HepG2, dark, concentration around 160 μM; for IC50: Homo sapiens. The data set is classed as cell-based, human. The text has this: To further quantitatively explore the in vitro anticancer potency of QTCy7-R, the methyl thiazolyltetrazolium (MTT) assay was employed to detect cell viability. […] Next, we evaluated the cytotoxicity under dark conditions of this series of compounds at high concentrations (Figure 9e), as due to the characteristics of mitochondrial accumulation, QTCy7-Me and QTCy7-Ph might lead to mitochondrial depolarization and apoptosis at high concentrations. However, its IC50 value could still reach about 60 μM, which was almost […] than those of all cyanine photosensitizers reported. […] The photocytotoxicity index value (dark IC50/light IC50) of QTCy7-Ac was >500, manifesting that QTCy7-Ac is a PS with high efficacy but low cytotoxicity, which is extremely promising in clinical application. […]
Cytotoxicity was tested by the reduction of methyl thiazolyl tetrazolium to formazan by succinic acid dehydrogenase in the mitochondria of living cells (MTT assay). HepG2 cells, MCF7 cells and 4T1 cells were seeded to 96-well microplates (Nunc, Denmark) with a density of 1 × 10^5 cells/mL cells in 100 μL DMEM medium and incubated at 37 °C for 24 h. When the cell density reached about 70%, the QTCy7-R with different concentrations (4, 3, 2, 1.5, 1, 0.75, 0.5, 0.25, 0 μM) in PBS were added to the wells of cells in dark condition, respectively. For light groups, the cell incubation conditions were the same as those of the dark group and the cells were further incubated for 2 h, subsequently, the cells were subjected to 660 nm irradiation (20 mW/cm2) for different time (10 min, 5 min and 2.5 min) corresponding to different light doses (12 J/cm2, 6 J/cm2 and 3 J/cm2). Then all the cells were incubated for 12 h, after which the MTT solution in DMEM (0.5 mg/ml, 100 μL) was added to each well and the cells were incubated at 37 °C for another 4 h. The MTT solution was carefully removed and 100 μL DMSO was added to dissolve formazan, and the absorbance of each well was measured by a multifunctional microplate reader at 570 nm and 630 nm. The cell viability was obtained by the following equation: […]
Where “OD” represent the absorbance at 570 nm and 630 nm, “ps” and “control” represent experimental groups and control groups, respectively. […]

The nature of data set [2]: Triplet lifetime by laser flash photolysis. The format is physicochemical. The note with it: 5 μM in deaerated dichloromethane, λex = 610 nm. The text has this: To probe the mechanism of the observed phenomenon and further validate our hypothesis, ultrafast excited-state dynamic behaviors were implemented by using femtosecond transient absorption spectroscopy (fs-TA) (Figures 3a and S4a–c). In order to obtain the complete process of excited states, a 350 nm laser was chosen as a pump to populate the high singlet excited states (Sn) from the ground state (S0). […] With the growth of delay time, the ESA of S1 gradually decayed (τ = 7.65 ps); meanwhile, beyond our expectation, accompanied by a particularly noticeable peak at ca. 583 nm increasing promptly, this new emerging ESA peak reached its maximum within about 21.98 ps. Similar phenomena were found in the transient spectra of the other three compounds (Figures S4d–f). However, for the control TCy7, there was no obvious formation of another ESA peak in transient spectra (Figure S5). […] Furthermore, the rate of X state formation was calculated to be 4.54 × 10^10 s^–1 for QTCy7-Ac based on the rise time (kX = 1/τX,rise), which was close to the order of magnitude of the intramolecular distorted vibration behavior. […] Meanwhile, the triplet lifetime of this series of molecules was evaluated and inspected for further applications (Figures 3d and S4g–i). […]
Photoexcited singlet oxygen production was detected by employed 1,3-diphenylisobenzofuran (DPBF) as the indicator. The absorbance of DPBF at 415 nm was regulated to about 1.0 in DCM. And the samples were irradiated with 660 nm light for various times, then the absorption spectra of different time nodes were recorded.
The singlet oxygen quantum yield (ΦΔ) was calculated by the following equation:
Where “Φ” represent the singlet oxygen quantum yield , “sam” and “std” represent QTCy7-R and MB, respectively. “m” is the slope of the absorbance of DPBF at 415 nm with time, F=1–10-O.D. (O.D. is the absorbance of samples at 660 nm). […]
The triplet life of QTCy7-R was measured by LP980 laser flash photolysis spectrometer (Edinburgh Instruments Ltd.) in combination with a Nd:YAG laser (Surelite I-10, Continuum Electro-Optics, Inc.). […]

Where [3] appears, read: HepG2, light or radiation study, HepG2, 660 nm irradiation 12 J/cm^2.

From paper PMC10451034, “Highly Efficient Photosensitizers with Molecular Vibrational Torsion for Cancer Photodynamic Therapy” (ACS Central Science, 2023) come the findings set out here.

Molecules are shown by their SMILES.

Take `CCN1/C(=C/C=C2\C=C(C=O)C=C(/C=C/c3sc4ccccc4[n+]3CC)C2=O)Sc2ccccc21` [QTCy7-CHO]: the surviving cells in data set [1] is given as 70–80%. The same molecule came in with an IC50 in data set [1] (setting [3]) of around 1800 nM. The triplet lifetime entry in data set [2] is “about 2 μs”.

As to `CCOC(=O)C1=C/C(=C\C=C2/Sc3ccccc3N2CC)C(=O)C(/C=C/c2sc3ccccc3[n+]2CC)=C1` [QTCy7-Ac], the “photocytotoxicity index (dark IC50/light IC50)” value in data set [1] (HepG2) is on record as above 500. Moreover, the surviving cells in data set [1] is on record as 70–80%. Also, the IC50 in data set [1] (HepG2, light or radiation study, HepG2, 660 nm irradiation 3 J/cm^2) is around 2000 nM; in data set [1] (HepG2, light or radiation study, HepG2, 660 nm irradiation 6 J/cm^2), around 1200 nM; in data set [1] (setting [3]), around 300 nM. The “enhancement compared with commercial Ce6 photosensitizer” value in data set [1] (cell destruction at low light doses) is 11 fold.

In the case of `CCN1/C(=C/C=C2\C=C(C)C=C(/C=C/c3sc4ccccc4[n+]3CC)C2=O)Sc2ccccc21` [QTCy7-Me], the half-maximal inhibitory concentration (IC50) in data set [1] (HepG2, HepG2, dark conditions) is around 60000 nM; in data set [1] (setting [3]), around 900 nM. Further, the triplet lifetime result in data set [2] was “about 12 μs”.

Turning to `CCN1/C(=C/C=C2\C=C(c3ccccc3)C=C(/C=C/c3sc4ccccc4[n+]3CC)C2=O)Sc2ccccc21` [QTCy7-Ph], the IC50 in data set [1] (HepG2, HepG2, dark conditions) is around 60000 nM; in data set [1] (setting [3]) it was around 300 nM. Moreover, the triplet lifetime result in data set [2] is “about 12 μs”.
